Several values for one entry are separate records, joined by “and”; a condition that tells them apart may be missing. Equal entries are not always repeated.
Legend:
physchem = settings: for solubility at 16 h: 25 °C, pH 7.4, aqueous buffer, kinetic from dmso stock; for Measured Solubility in pH 7.4 phosphate buffer (mg/ml) / Measured Solubility in pH 7.4 phosphate buffer (μM): 50 mM potassium phosphate buffer pH 7.40, 16 hr at ~25° C., incubation concentration 1600 μM
Method: 2.79 g of K2HPO4 and 0.54 g of KH2PO4 was dissolved in 390 mL of milliQ water. pH was adjusted to 7.4 using 1N HCl/1N NaOH and final volume was made up to 400 mL with milliQ water.
In case of compounds not soluble/less quantity submission, 40/20/10Mm stocks were prepared and used for experiment.
Assay Procedure: • 245 μL of 50 mM phosphate buffer then 5 μL each of test compound/standards (80 mM) in their respective positions was added to the 1.1 mL 96 well plate. • DMSO Controls was prepared by taking 245 μL of 100% DMSO then 5 μL each of test compound in their respective positions and added to the 1.1 mL 96 well plate • Plate was incubated with mixing at 1600 RPM for 16 hours at room temperature (˜23 MC). • After incubation, samples were filtered using Millipore plates. • Filtrates were analysed by HPLC-UV.
Solubility is calculated using the following formula: […]

[1] = target: erythrocyte KCa3.1 channels (Homo sapiens (Human), UniProt O15554); assay: Erythrocyte KCa3.1 assay; type: cell-based; settings: human erythrocytes, A23187-activated KCa3.1; read-out: RBC K (in vitro) Human IC50 (μM) Potency category
Method: Human blood was drawn from healthy human volunteers in a standard heparinized blood sampling vial (Vacutainer, Li/heparin, ED Bioscience, Plymouth, UK). The erythrocytes were packed by centrifugation, and the plasma and buffy coat were removed by aspiration. Erythrocytes were washed three times in the experimental salt solution and then stored at 0° C. until use. Blood samples from NMRI mice or from Wistar rats were treated similarly. The methodological principle is outlined in Macey et al. (1978) and further described in Strøbaek et al. (2013). Activation of the erythrocyte KCa3.1 channels were obtained by addition of the Ca^2+ ionophore A23187, which causes synchronized hyperpolarization, which is reported as a CCCP-mediated shift in the unbuffered extracellular pH of the erythrocyte suspension. Standard procedure: 3 mL unbuffered experimental salt solution (in mM: 2 KCl, 154 NaCl, 0.05 CaCl2) was heated to 37° C. with stirring. Packed erythrocytes were added (50 μL, final cytocrit 1.5%), and the extracellular pH (pHo) followed with a glass/calomel (pHG200-8/REF200, Radiometer, Denmark) electrode pair. CCCP (3 μL, final concentration 20 μM) was added followed by varying concentrations of test compounds (DMSO concentration constant). After pH stabilization at ˜7.2, A23187 (3 μL, final concentration 0.33 μM) was added to initiate the experiment. After the peak hyperpolarization was attained, the intracellular pH (pHi constant during the experiment) was found by haemolysing the erythrocytes via addition of 100 μL of Triton-X100.
The erythrocyte membrane potential, Vm, was calculated according to: […]
and the fractional remaining Ca^2+-activated K^+-conductance at the concentration C of blocker, fGK(C), was calculated from
where the K^+ equilibrium potential EK=−107 mV, the Cl^− equilibrium potential ECl=−12 mV and the Vm(0) and Vm(C) are the peak hyperpolarizations in the control and in the presence of a concentration of C of blocker respectively.
IC50 values for compounds were calculated from a plot of fGK(C) versus C by a fit to the Hill equation, using a custom program written in the IGOR-Pro software (WaveMetrics, Lake Oswego, OR, USA). All IC50-values are reported in μM.

[2] = cited from earlier work
mouse model of ARDS = settings: treatment; cited from earlier work

Compound: N[C@H]1CCC[C@@H]1NC1(c2ccc(F)c(C(F)(F)F)c2)CC1 [(1S,2S)-N1-(1-(4-fluoro-3-(trifluoromethyl)phenyl)cyclopropyl)-cyclopentane-1,2-diamine]
- solubility at 16 h (physchem): 239 µg/mL and 700 µM
- IC50 [1]: < 1 µM

Compound: COC(=O)N(CC1CCN1)C1(c2ccc(F)c(OC(F)(F)F)c2)CC1 (stereo not shown) [Methyl (azetidin-2-ylmethyl)(1-(4-fluoro-3-(trifluoromethoxy)phenyl)cyclopropyl)carbamate]
- solubility at 16 h (physchem): 558 µg/mL and 1500 µM
- IC50 [1]: < 0.3 µM

Compound: COC(=O)N(C[C@H]1CCCN1C)C1(c2ccc(F)c(C(F)(F)F)c2)CC1 [Methyl (R)-(1-(4-fluoro-3-(trifluoromethyl)phenyl)cyclopropyl)((1-methylpyrrolidin-2-yl)methyl)carbamate]
- solubility at 16 h (physchem): 558 µg/mL and 1500 µM
- IC50 [1]: < 0.3 µM

Compound: NC(=O)C(c1ccccc1)(c1ccc(F)cc1)c1ccc(F)cc1 [senicapoc]
- Water solubility [2]: extremely low
- Gas exchange (mouse model of ARDS): improvement was also demonstrated

Compound: Fc1ccc(C2(N(CC3CC3)C3CNC3)CC2)cc1C(F)(F)F [N-(cyclopropylmethyl)-N-(1-(4-fluoro-3-(trifluoromethyl)phenyl)cyclopropyl)azetidin-3-amine]
- solubility at 16 h (physchem): 679 µg/mL and 1500 µM
- IC50 [1]: < 0.3 µM

Compound: NC1(CNC2(c3ccc(F)c(C(F)(F)F)c3)CC2)CC1 [N-((1-aminocyclopropyl)methyl)-1-(4-fluoro-3-(trifluoromethyl)phenyl)cyclopropan-1-amine]
- solubility at 16 h (physchem): 464 µg/mL and 1400 µM
- IC50 [1]: < 0.3 µM

Compound: COC(=O)N(C[C@@H]1CCCN1)C1(c2ccc(F)c(C(F)(F)F)c2)CC1 [Methyl (S)-(1-(4-fluoro-3-(trifluoromethyl)phenyl)cyclopropyl)(pyrrolidin-2-ylmethyl)carbamate]
- solubility at 16 h (physchem): 653 µg/mL and 1600 µM
- IC50 [1]: < 0.3 µM

Compound: CC(C)(N)CN(C(=O)C1CC1)C1(c2ccc(F)c(C(F)(F)F)c2)CC1 [N-(2-amino-2-methylpropyl)-N-(1-(4-fluoro-3-(trifluoromethyl)phenyl)cyclopropyl)cyclopropanecarboxamide]
- solubility at 16 h (physchem): 582 µg/mL and 1200 µM
- IC50 [1]: < 1 µM

Compound: CC(C)(N)CN(C1CC1)C1(c2cccc(C(F)(F)F)c2)CC1 [N1-cyclopropyl-2-methyl-N1-(1-(3-(trifluoromethyl)phenyl)cyclopropyl)propane-1,2-diamine]
- solubility at 16 h (physchem): 481 µg/mL and 1400 µM
- IC50 [1]: < 0.3 µM

Compound: COC(=O)N(CC1CCN1)C1(c2ccc(F)c(C(F)(F)F)c2)CC1 (stereo not shown) [Methyl (azetidin-2-ylmethyl)(1-(4-fluoro-3-(trifluoromethyl)phenyl)cyclopropyl)carbamate]
- solubility at 16 h (physchem): 687 µg/mL and 1500 µM
- IC50 [1]: < 0.3 µM

Compound: COC(=O)N(CC(C)(C)N)C1(c2cc(C(F)(F)F)c(F)cn2)CC1 [Methyl (2-amino-2-methylpropyl)(1-(5-fluoro-4-(trifluoromethyl)pyridin-2-yl)cyclopropyl) carbamate]
- Measured Solubility in pH 7.4 phosphate buffer (mg/ml) (physchem): 0.5636 mg/ml
- Measured Solubility in pH 7.4 phosphate buffer (μM) (physchem): 1500 μM
- IC50 [1]: < 1 µM

Compound: COC(=O)N(CC(C)(C)N)C1(c2cccc(Cl)c2)CC1 [Methyl (2-amino-2-methylpropyl)(1-(3-chlorophenyl)cyclopropyl)carbamate]
- solubility at 16 h (physchem): 634 µg/mL and 1500 µM
- IC50 [1]: < 1 µM

Compound: COC(=O)N(CC1(N)CC1)C1(c2ccc(F)c(C(F)(F)F)c2)CC1 [Methyl ((1-aminocyclopropyl)methyl)(1-(4-fluoro-3-(trifluoromethyl)phenyl)cyclopropyl) carbamate]
- Measured Solubility in pH 7.4 phosphate buffer (mg/ml) (physchem): 0.5599 mg/ml
- Measured Solubility in pH 7.4 phosphate buffer (μM) (physchem): 1600 μM
- IC50 [1]: < 0.3 µM

Compound: COC(=O)N(C[C@H]1CCCN1)C1(c2ccc(F)c(C(F)(F)F)c2)CC1 [Methyl (R)-(1-(4-fluoro-3-(trifluoromethyl)phenyl)cyclopropyl)(pyrrolidin-2-ylmethyl)carbamate]
- solubility at 16 h (physchem): 667 µg/mL and 1700 µM
- IC50 [1]: < 0.3 µM

Compound: COC(=O)N(CC1CCN1C)C1(c2ccc(F)c(C(F)(F)F)c2)CC1 (stereo not shown) [Methyl (1-(4-fluoro-3-(trifluoromethyl)phenyl)cyclopropyl)((1-methylazetidin-2-yl)methyl)carbamate]
- solubility at 16 h (physchem): 598 µg/mL and 1700 µM
- IC50 [1]: < 0.3 µM

Compound: COC(=O)N(C[C@H]1COCCN1)C1(c2ccc(F)c(C(F)(F)F)c2)CC1 [Methyl (S)-(1-(4-fluoro-3-(trifluoromethyl)phenyl)cyclopropyl)(morpholin-3-ylmethyl) carbamate]
- Measured Solubility in pH 7.4 phosphate buffer (mg/ml) (physchem): 0.6118 mg/ml
- Measured Solubility in pH 7.4 phosphate buffer (μM) (physchem): 1500 μM
- IC50 [1]: < 1 µM

Compound: COC(=O)N(CC(C)(C)N)C1(c2ccc(F)c(C(F)(F)F)c2)CC1 [Methyl (2-amino-2-methylpropyl)(1-(4-fluoro-3-(trifluoromethyl)phenyl)cyclopropyl)carbamate]
- solubility at 16 h (physchem): 556 µg/mL and 1600 µM
- IC50 [1]: < 0.3 µM

Compound: COC(=O)N(C[C@@H]1CCCN1C)C1(c2ccc(F)c(C(F)(F)F)c2)CC1 [Methyl (S)-(1-(4-fluoro-3-(trifluoromethyl)phenyl)cyclopropyl) ((1-methylpyrrolidin-2-yl)methyl) carbamate]
- Measured Solubility in pH 7.4 phosphate buffer (mg/ml) (physchem): 0.5918 mg/ml
- Measured Solubility in pH 7.4 phosphate buffer (μM) (physchem): 1600 μM
- IC50 [1]: < 0.3 µM

Compound: COC(=O)N(CC(C)(C)N)C1(c2ccc(F)c(OC(F)(F)F)c2)CC1 [Methyl (2-amino-2-methylpropyl)(1-(4-fluoro-3-(trifluoromethoxy)phenyl)cyclopropyl)carbamate]
- solubility at 16 h (physchem): 584 µg/mL and 1500 µM
- IC50 [1]: < 0.3 µM

Compound: COC(=O)N(C[C@@H]1CCCN1)C1(c2ccc(F)c(OC(F)(F)F)c2)CC1 [Methyl (S)-(1-(4-fluoro-3-(trifluoromethoxy)phenyl)cyclopropyl)(pyrrolidin-2-ylmethyl)carbamate]
- solubility at 16 h (physchem): 674 µg/mL and 1600 µM
- IC50 [1]: < 0.3 µM

Compound: COC(=O)N(CC(C)(C)NO)C1(c2ccc(F)c(C(F)(F)F)c2)CC1 [Methyl (1-(4-fluoro-3-(trifluoromethyl)phenyl)cyclopropyl)(2-(hydroxyamino)-2-methylpropyl)carbamate]
- solubility at 16 h (physchem): 138 µg/mL and 400 µM
- IC50 [1]: < 0.3 µM

Compound: COC(=O)N(CC(C)(C)N)C1(c2cc(Cl)cc(Cl)c2)CC1 [Methyl (2-amino-2-methylpropyl)(1-(3,5-dichlorophenyl)cyclopropyl)carbamate]
- solubility at 16 h (physchem): 578 µg/mL and 1600 µM
- IC50 [1]: < 0.3 µM

Compound: COC(=O)N(CC(C)(C)N)C1(c2cccc(C(F)(F)F)c2)CC1 [Methyl (2-amino-2-methylpropyl)(1-(3-(trifluoromethyl)phenyl)cyclopropyl)carbamate]
- solubility at 16 h (physchem): 526 µg/mL and 1400 µM
- IC50 [1]: < 0.3 µM

Compound: Clc1ccccc1C(c1ccccc1)(c1ccccc1)n1cccn1 [TRAM-34]
- Water solubility [2]: extremely low
- Gas exchange (mouse model of ARDS): improvement was also demonstrated
